Measurements: patent US8822526B2, “Synergistic pharmaceutical combination for the treatment of cancer” (Piramal Enterprises Limited, priority 2007, dated 2014)
pIC50: −log10 of the molar value. Values joined by “and” are separate entries in the source; they are usually repeats but may differ in a detail not shown here. Identical values can stand only once. Like-named read-outs stand apart in the source and are kept apart here.

Legend:
[1] = system: pancreatic cells (Panc-1); assay: Analysis of cell cycle distribution and flow cytometry (sub G1 apoptosis); type: cell-based, human; settings: FIG. 3: 70 nM gemcitabine alone (24 hours); 300 nM compound A alone (72 hours); combination 70 nM gemcitabine (24 hours) followed by 300 nM compound A (72 hours)
[2] = system: human pancreatic (Panc-1) cell line; assay: In vitro cytotoxicity assay (MTS); type: cell-based
[3] = system: human non-small cell lung carcinoma H-460 cells; assay: In vitro cytotoxicity assay (MTS)
Procedure: The cytotoxicity assay used was MTS (3-(4,5-dimethylthiazol-2-yl)-5-(3-carboxymethoxyphenyl)-2-(4-sulfophenyl)-2H-tetrazolium, inner salt) assay. The human non-small cell lung carcinoma H-460 cells were seeded at a density of 1500 cells/well in 180 μL of culture medium in 96-well plate and incubated overnight to allow the cells to adhere. Varying concentrations of the drugs contained in the combination were added to the wells and incubated for an appropriate period of time in humidified 5% CO2 incubator at 37° C. in case of a single drug exposure. […] Control wells were treated with a vehicle. At the end of the incubation period, the medium was removed from the wells and 20 μL of MTS (2 mg/mL in phosphate buffer saline, pH 6-6.5 and filter sterilized) and 1 μL of phenazine methosulfate (PMS, 3 mM in phosphate buffered saline, pH 7.3 and filter sterilized) was added to each well and the total volume was adjusted to 200 μL with complete medium. The plate was incubated for 2-4 hours in humidified 5% CO2 incubator at 37° C.
(§1) After completion of the drugs treatment i.e. at the end of 96 hours the plates were processed for MTS viability assay and the percent cytotoxicity was calculated as compared to control.
as §1
(§2) The human non-small cell lung carcinoma H-460 cells were seeded at a density of 1500 cells/well. […] After completion of the drugs treatment i.e. at the end of 120 hours the plates were processed for MTS viability assay and the percent cytotoxicity was calculated as compared to control.
as §2
The human non-small cell lung carcinoma H-460 cells were seeded at a density of 1500 cells/well. […] After completion of the drugs treatment i.e. at the end of 120 hours, the plates were processed for MTS viability assay and the percent cytotoxicity was calculated as compared to control.
(§3) After completion of the drugs treatment i.e. at the end of 48 hours the plates were processed for MTS viability assay and the percent cytotoxicity was calculated as compared to control.
The plates were processed for MTS viability assay and the percent cytotoxicity was calculated as compared to control.
as §3
The human non-small cell lung carcinoma H-460 cells were seeded at a density of 1500 cells/well. As per Table 16A the cells were first treated with either of the drugs alone i.e. with doxorubicin or flavopiridol alone. Doxorubicin treatment was for the first 24 hours followed by complete medium for 96 hours while in case of flavopiridol, the first 24 hours was in complete medium followed by flavopiridol for the next 96 hours. […] After completion of the drugs treatment i.e. at the end of 120 hours the plates were processed for MTS viability assay and the percent cytotoxicity was calculated as compared to control.
As per Table 16B the cells were first treated with either of the drugs alone i.e. with doxorubicin or flavopiridol alone. Flavopiridol treatment was for the first 96 hours followed by complete medium for 24 hours while in case of doxorubicin, the first 96 hours was in complete medium followed by doxorubicin for 24 hours. […] After completion of the drugs treatment i.e. at the end of 120 hours, the plates were processed for MTS viability assay and the percent cytotoxicity was calculated as compared to control.
The human non-small cell lung carcinoma H-460 cells were seeded at a density of 1500 cells/well.

NCI-H460/R = settings: J. Chemother., 2006 February; 18(1) 66-73; cited from earlier work

**Q.** With `CN1CC[C@@H](c2c(O)cc(O)c3c(=O)cc(-c4ccccc4Cl)oc23)[C@@H]1CO.Cl` [Compound A, (+)-trans-2-(2-Chloro-phenyl)-5,7-dihydroxy-8-(2-hydroxymethyl-1-methyl-pyrrolidin-3-yl)-chromen-4-one hydrochloride] as the compound, how does the “apoptosis (sub G1 phase)” value [1] read?
**A.** Its value is 4.3%.

**Q.** What about the “IC30 concentration after 48 hours treatment” value ([2]; Panc-1 cells, 48 hours treatment) of the same compound?
**A.** Its value is roughly 0.3 µM.

**Q.** And the “% Cytotoxicity” value ([2]; complete medium 24 hours, then compound A 300 nM 72 hours)?
**A.** The value was 34%.

**Q.** What about the “IC30 concentration after 48 hours treatment” value ([3]; H-460 cells, 48 hours treatment, hydrochloride) of the same compound?
**A.** Its value is 0.8 µM and ~0.7 µM.

**Q.** What about the pIC50 ([3]; Homo sapiens, NCI-H460, 48 h, read-out: IC50 concentration after 48 hours treatment, H-460 cells, 48 hours treatment) of the same compound?
**A.** Its pIC50 is 5.92.

**Q.** What about the cytotoxicity at 0.8 µM ([3]; Homo sapiens, NCI-H460, 120 h, compound A 800 nM alone for 120 hours) of the same compound?
**A.** The cytotoxicity at 0.8 µM was 24%.

**Q.** And the cytotoxicity at 1.2 µM ([3]; Homo sapiens, NCI-H460, 120 h, compound A 1200 nM alone for 120 hours)?
**A.** The cytotoxicity at 1.2 µM was 44%.

**Q.** What about the “% Cytotoxicity” value ([3]; human, 45 h, 1000 nM) of the same compound?
**A.** Its value is 35%.

**Q.** And the “% Cytotoxicity” value ([3]; human, 72 h, 800 nM)?
**A.** The value was 17%.

**Q.** What about the “% Cytotoxicity” value ([3]; human, 72 h, 1200 nM) of the same compound?
**A.** Its value is 36%.

**Q.** What about the “% Cytotoxicity” value ([3]; human, 96 h, 800 nM) of the same compound?
**A.** Its value is 19%.

**Q.** And the pIC50 ([3]; read-out: IC50 concentration after 48 hours treatment, H-460 cells, 48 hours treatment, hydrochloride)?
**A.** The pIC50 was roughly 6.00.

**Q.** Which “resistance of NCI-H460/R to doxorubicin” value (NCI-H460/R) does the source give for `COc1cccc2c1C(=O)c1c(O)c3c(c(O)c1C2=O)C[C@@](O)(C(=O)CO)C[C@@H]3O[C@H]1C[C@H](N)[C@H](O)[C@H](C)O1` [Doxorubicin] here?
**A.** The value was 96.2 fold.

**Q.** What about the “% Cytotoxicity” value ([3]; Doxorubicin 30 nM alone for 120 hours) of the same compound?
**A.** The value was 2%.

**Q.** And the “% Cytotoxicity” value ([3]; Doxorubicin 30 nM first 24 hours, then complete medium 96 hours, MTS at 120 hours)?
**A.** Its value is 0%.

**Q.** And the “% Cytotoxicity” value ([3]; Doxorubicin 70 nM first 24 hours, then complete medium 96 hours, MTS at 120 hours)?
**A.** Its value is 14% and 12%.

**Q.** What about the “% Cytotoxicity” value ([3]; Doxorubicin 100 nM alone for 120 hours) of the same compound?
**A.** Its value is 24%.

**Q.** And the “% Cytotoxicity” value ([3]; Doxorubicin 100 nM first 24 hours, then complete medium 72 hours, MTS at 96 hours)?
**A.** The value was 16%.

**Q.** What about the “% Cytotoxicity” value ([3]; Doxorubicin 100 nM first 24 hours, then complete medium 96 hours, MTS at 120 hours) of the same compound?
**A.** The value was 8%.

**Q.** And the “% Cytotoxicity” value ([3]; Doxorubicin 100 nM first 24 hours, then complete medium 96 hours, MTS at 120 hours, listed as Doxo.)?
**A.** The value was 16% and 9%.

**Q.** And the “% Cytotoxicity” value ([3]; Doxorubicin 200 nM first 24 hours, then complete medium 96 hours, MTS at 120 hours)?
**A.** The value was 17%.

**Q.** And the cytotoxicity at 0.03 µM ([3]; Homo sapiens, NCI-H460, 120 h, Doxorubicin 30 nM alone for 120 hours)?
**A.** The cytotoxicity at 0.03 µM was 3%.

**Q.** And the cytotoxicity at 0.07 µM ([3]; Homo sapiens, NCI-H460, 120 h, Doxorubicin 70 nM alone for 120 hours)?
**A.** Its cytotoxicity at 0.07 µM is 28%.

**Q.** And the cytotoxicity at 0.1 µM ([3]; Homo sapiens, NCI-H460, 120 h, Doxorubicin 100 nM alone for 120 hours)?
**A.** Its cytotoxicity at 0.1 µM is 19%.

**Q.** And the cytotoxicity at 0.2 µM ([3]; Homo sapiens, NCI-H460, 120 h, Doxorubicin 200 nM alone for 120 hours)?
**A.** Its cytotoxicity at 0.2 µM is 48%.
